Key:
liver = conditions: in vivo; cited from earlier work
maltase = test: Maltose administration experiment (inhibition of maltase in vivo), plasma glucose; parameters: species or system rat; conditions: rats; for Plasma glucose level, 0 min: before maltose 2 g/kg + test sugar 200 mg/kg; for action to suppress the increase of blood glucose level: given simultaneously with maltose (experiment 2); for Plasma glucose level, 30 min / Plasma glucose level, 60 min / Plasma glucose level, 90 min / Plasma glucose level, 120 min / ΔAUC of plasma glucose level: maltose 2 g/kg + test sugar 200 mg/kg
Protocol: (§1) Thirty-six male Wistar rats of age 6 months are divided into 6 groups. The following sugars were given to the rats in the individual groups after 12-hour fasting. Before the administration and 30, 60, 90, 120 and 180 minutes after the administration, blood is drawn from the tail vein, to assay plasma glucose and insulin concentration.
2. Maltose 2 g/kg+L-arabinose 200 mg/kg (MA)
3. Maltose 2 g/kg+D-xylose 200 mg/kg (MX)
4. Maltose 2 g/kg+D-fructose 200 mg/kg (MF)
5. Maltose 2 g/kg+D-psicose 200 mg/kg (MP)
6. Maltose 2 g/kg+(fructose 150 mg/kg+psicose 50 mg/kg) (MFP)
(§2) Before the administration and 30, 60, 90, 120 and 180 minutes after the administration, plasma glucose level was assayed. The plasma glucose level 180 minutes later was used to calculate the area under the curve of plasma glucose level (ΔAUC).

sucrase = target: T1, sucrase (Rattus norvegicus, UniProt P23739); test: Sucrose administration experiment (inhibition of sucrase in vivo), plasma glucose; conditions: rats; for Plasma glucose level, 0 min: before sucrose 2 g/kg + test sugar 200 mg/kg; for Plasma glucose level, 30 min / Plasma glucose level, 60 min / Plasma glucose level, 90 min / Plasma glucose level, 120 min / ΔAUC of plasma glucose level: sucrose 2 g/kg + test sugar 200 mg/kg
T1 construct: from tissue; host or cells: small intestine of live male Wistar rats (oral sugar load)
Protocol: Sucrose 2 g/kg+L-arabinose 200 mg/kg (SA)
Sucrose 2 g/kg+D-xylose 200 mg/kg (SX)
Sucrose 2 g/kg+D-fructose 200 mg/kg (SF)
Sucrose 2 g/kg+D-psicose 200 mg/kg (SP)
Sucrose 2 g/kg+(fructose 150 mg/kg+psicose 50 mg/kg) (SFP)

Male Wistar rats = test: Soluble starch administration experiment, plasma glucose; assay type: in vivo, rat; conditions: for Plasma glucose level, 0 min: before soluble starch 2 g/kg + test sugar 200 mg/kg; for action to suppress the increase of blood glucose level: given simultaneously with soluble starch (experiment 3); for Plasma glucose level, 30 min / Plasma glucose level, 60 min / Plasma glucose level, 90 min / Plasma glucose level, 120 min / ΔAUC of plasma glucose level: soluble starch 2 g/kg + test sugar 200 mg/kg
Protocol: as §1
1. Soluble starch 2 g/kg (SS)
2. Soluble starch 2 g/kg+L-arabinose 200 mg/kg (SSA)
3. Soluble starch 2 g/kg+D-xylose 200 mg/kg (SSX)
4. Soluble starch 2 g/kg+D-fructose 200 mg/kg (SSF)
5. Soluble starch 2 g/kg+D-psicose 200 mg/kg (SSP)
6. Soluble starch 2 g/kg+(fructose 150 mg/kg+psicose 50 mg/kg) (SSFP)
as §2

T1 sequence (P23739 whole entry): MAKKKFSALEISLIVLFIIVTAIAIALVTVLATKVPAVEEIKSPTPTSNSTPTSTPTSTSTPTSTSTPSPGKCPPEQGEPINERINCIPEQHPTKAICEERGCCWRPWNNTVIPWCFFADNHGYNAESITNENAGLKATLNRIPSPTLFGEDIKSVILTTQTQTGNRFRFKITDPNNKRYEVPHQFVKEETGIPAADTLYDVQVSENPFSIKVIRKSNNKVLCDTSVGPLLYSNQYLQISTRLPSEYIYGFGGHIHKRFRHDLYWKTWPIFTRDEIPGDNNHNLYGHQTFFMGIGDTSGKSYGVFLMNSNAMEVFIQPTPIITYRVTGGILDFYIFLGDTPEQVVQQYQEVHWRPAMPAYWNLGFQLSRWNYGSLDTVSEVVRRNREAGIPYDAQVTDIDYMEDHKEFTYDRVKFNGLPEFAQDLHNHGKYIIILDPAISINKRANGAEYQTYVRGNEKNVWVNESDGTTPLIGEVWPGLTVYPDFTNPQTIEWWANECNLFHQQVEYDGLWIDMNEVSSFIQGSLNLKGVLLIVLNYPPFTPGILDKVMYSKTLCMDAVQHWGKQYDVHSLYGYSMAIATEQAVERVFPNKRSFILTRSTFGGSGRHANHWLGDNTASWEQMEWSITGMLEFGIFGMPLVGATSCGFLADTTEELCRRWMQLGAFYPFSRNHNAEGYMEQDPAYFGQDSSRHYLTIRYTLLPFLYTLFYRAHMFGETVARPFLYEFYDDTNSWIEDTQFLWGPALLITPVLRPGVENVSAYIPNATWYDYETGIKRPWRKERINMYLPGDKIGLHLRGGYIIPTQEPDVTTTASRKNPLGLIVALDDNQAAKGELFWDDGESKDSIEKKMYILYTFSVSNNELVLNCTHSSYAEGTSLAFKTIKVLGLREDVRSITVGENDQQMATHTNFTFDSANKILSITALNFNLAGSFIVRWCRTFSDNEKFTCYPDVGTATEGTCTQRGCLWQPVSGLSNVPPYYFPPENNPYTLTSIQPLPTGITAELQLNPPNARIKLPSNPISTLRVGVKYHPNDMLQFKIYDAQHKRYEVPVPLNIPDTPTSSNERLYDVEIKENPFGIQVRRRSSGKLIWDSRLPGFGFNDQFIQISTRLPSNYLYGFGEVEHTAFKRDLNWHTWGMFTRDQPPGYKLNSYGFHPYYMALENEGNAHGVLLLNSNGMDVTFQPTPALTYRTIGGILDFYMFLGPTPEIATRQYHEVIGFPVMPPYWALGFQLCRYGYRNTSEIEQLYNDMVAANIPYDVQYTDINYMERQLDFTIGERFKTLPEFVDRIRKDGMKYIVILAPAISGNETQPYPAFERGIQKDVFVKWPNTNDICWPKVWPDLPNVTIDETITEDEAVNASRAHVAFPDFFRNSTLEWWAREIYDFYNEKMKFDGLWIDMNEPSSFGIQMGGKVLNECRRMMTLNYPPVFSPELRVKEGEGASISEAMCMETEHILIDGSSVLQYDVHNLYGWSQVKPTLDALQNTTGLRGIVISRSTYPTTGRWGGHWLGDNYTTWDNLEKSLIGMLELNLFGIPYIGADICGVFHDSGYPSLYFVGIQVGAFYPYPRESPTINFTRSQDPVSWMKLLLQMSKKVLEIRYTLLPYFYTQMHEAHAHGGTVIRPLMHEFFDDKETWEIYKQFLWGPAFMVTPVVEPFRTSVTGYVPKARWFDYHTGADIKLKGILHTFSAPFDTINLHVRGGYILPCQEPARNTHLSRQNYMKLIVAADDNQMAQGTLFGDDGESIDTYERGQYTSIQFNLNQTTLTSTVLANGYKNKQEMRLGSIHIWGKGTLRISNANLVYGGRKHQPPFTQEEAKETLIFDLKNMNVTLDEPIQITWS

SMILES: O=C(CO)[C@@H](O)[C@@H](O)[C@H](O)CO [D-tagatose]
- histological change of liver (liver): never involved any histological change of liver

SMILES: O=C[C@H](O)[C@@H](O)[C@H](O)CO [D-xylose]
- Plasma glucose level, 0 min (maltase): 86 ± 8 mg/dL
- action to suppress the increase of blood glucose level (maltase): scarcely suppressed
- Plasma glucose level, 30 min (maltase): 146 ± 14 mg/dL
- Plasma glucose level, 60 min (maltase): 172 ± 12 a mg/dl
- Plasma glucose level, 90 min (maltase): 166 ± 20 mg/dL
- Plasma glucose level, 120 min (maltase): 150 ± 19 mg/dL
- ΔAUC of plasma glucose level (maltase): 7765 min^− mg/dl
- Plasma glucose level, 0 min (sucrase): 102 mg/dL
- Plasma glucose level, 30 min (sucrase): 123 ± 11 b mg/dl
- Plasma glucose level, 60 min (sucrase): 126 ± 12 b mg/dl
- Plasma glucose level, 90 min (sucrase): 130 ± 13 b mg/dl
- Plasma glucose level, 120 min (sucrase): 137 ± 16 mg/dL
- ΔAUC of plasma glucose level (sucrase): 2646 min^− mg/dl
- Plasma glucose level, 0 min (Male Wistar rats): 99 ± 10 mg/dL
- action to suppress the increase of blood glucose level (Male Wistar rats): scarcely suppressed
- Plasma glucose level, 30 min (Male Wistar rats): 141 ± 8 mg/dL
- Plasma glucose level, 60 min (Male Wistar rats): 135 ± 12 mg/dL
- Plasma glucose level, 90 min (Male Wistar rats): 138 ± 16 mg/dL
- Plasma glucose level, 120 min (Male Wistar rats): 131 ± 12 mg/dL
- ΔAUC of plasma glucose level (Male Wistar rats): 4040 min^− mg/dl

SMILES: O=C[C@H](O)[C@@H](O)[C@@H](O)CO [L-arabinose]
- Plasma glucose level, 0 min (maltase): 89 ± 7 mg/dL
- action to suppress the increase of blood glucose level (maltase): scarcely suppressed
- Plasma glucose level, 30 min (maltase): 139 ± 16 mg/dL
- Plasma glucose level, 60 min (maltase): 157 ± 22 ab mg/dl
- Plasma glucose level, 90 min (maltase): 149 ± 21 mg/dL
- Plasma glucose level, 120 min (maltase): 138 ± 22 mg/dL
- ΔAUC of plasma glucose level (maltase): 6087 min^− mg/dl
- Plasma glucose level, 0 min (sucrase): 93 mg/dL
- Plasma glucose level, 30 min (sucrase): 139 ± 21 ab mg/dl
- Plasma glucose level, 60 min (sucrase): 142 ± 21 ab mg/dl
- Plasma glucose level, 90 min (sucrase): 139 ± 14 ab mg/dl
- Plasma glucose level, 120 min (sucrase): 142 ± 18 mg/dL
- ΔAUC of plasma glucose level (sucrase): 4978 min^− mg/dl
- Plasma glucose level, 0 min (Male Wistar rats): 97 ± 9 mg/dL
- action to suppress the increase of blood glucose level (Male Wistar rats): scarcely suppressed
- Plasma glucose level, 30 min (Male Wistar rats): 135 ± 20 mg/dL
- Plasma glucose level, 60 min (Male Wistar rats): 129 ± 22 mg/dL
- Plasma glucose level, 90 min (Male Wistar rats): 128 ± 22 mg/dL
- Plasma glucose level, 120 min (Male Wistar rats): 119 ± 15 mg/dL
- ΔAUC of plasma glucose level (Male Wistar rats): 3370 min^− mg/dl

— US8071558B2, “Application of D-psicose to suppression of abnormal circadian increase in blood glucose level” (Rare Sugar Production Technical Research Laboratories, LLC., priority 2005, dated 2011)
